Assay [1] concerns the target T1, DGKα (hDGKalpha(1-735)-N-His) (Homo sapiens, UniProt P23743).
T1 construct: hDGKalpha(1-735)-N-His; His (N); made in house; host or cells: Sf21 insect cells (baculovirus)
Put plainly: In vitro DGK inhibition assay, DGKalpha ADP Glo (in house). The assay is classed as biochemical. Particulars: 4 nM DGKα, 25 μM ATP, 125 uM DLG in liposomes, 1 hour reaction. In outline: (§1)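 ADP-Glo luminescence measured ADP formed over 1 h by Sf21-expressed full-length human enzymes: DGKα at 4 nM with 25 µM ATP, DGKζ at 2 nM with 50 µM ATP, both on 125 µM DLG in PS/PC liposomes. Dose–response used 11 threefold dilutions at 2% final DMSO.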

The target in assay [2] is T2, DGKζ (hDGKzeta(1-928)-N-His) (Homo sapiens, UniProt Q13574).
T2 construct: hDGKzeta(1-928)-N-His; His (N); made in house; host or cells: Sf21 insect cells (baculovirus)
Put plainly: In vitro DGK inhibition assay, DGKzeta ADP Glo (in house). It counts as biochemical. Particulars: 2 nM DGKζ, 50 μM ATP, 125 uM DLG in liposomes, 1 hour reaction. A digest of the protocol:
as §1

pIC50: −log10 of the molar value.

T1 sequence (P23743 whole entry): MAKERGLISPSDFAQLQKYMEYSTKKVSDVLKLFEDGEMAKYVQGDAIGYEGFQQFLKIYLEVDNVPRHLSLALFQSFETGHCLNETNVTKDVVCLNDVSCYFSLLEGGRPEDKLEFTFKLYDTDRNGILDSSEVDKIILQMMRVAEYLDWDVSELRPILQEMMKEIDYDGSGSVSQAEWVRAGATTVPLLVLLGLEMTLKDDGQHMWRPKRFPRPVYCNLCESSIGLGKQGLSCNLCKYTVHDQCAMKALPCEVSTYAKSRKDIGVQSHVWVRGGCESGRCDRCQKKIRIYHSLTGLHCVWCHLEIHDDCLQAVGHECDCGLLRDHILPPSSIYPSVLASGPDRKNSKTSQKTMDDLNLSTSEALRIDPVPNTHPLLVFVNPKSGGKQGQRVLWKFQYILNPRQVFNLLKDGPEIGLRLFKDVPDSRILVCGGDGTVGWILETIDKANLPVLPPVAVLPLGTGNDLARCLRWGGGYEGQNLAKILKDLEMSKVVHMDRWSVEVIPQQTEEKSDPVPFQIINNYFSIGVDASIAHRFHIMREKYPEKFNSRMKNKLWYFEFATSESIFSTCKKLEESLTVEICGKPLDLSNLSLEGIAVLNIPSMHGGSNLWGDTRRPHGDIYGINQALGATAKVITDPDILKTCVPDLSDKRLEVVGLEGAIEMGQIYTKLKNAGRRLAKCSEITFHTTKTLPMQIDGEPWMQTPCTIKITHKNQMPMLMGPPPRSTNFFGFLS
T2 sequence (Q13574 whole entry): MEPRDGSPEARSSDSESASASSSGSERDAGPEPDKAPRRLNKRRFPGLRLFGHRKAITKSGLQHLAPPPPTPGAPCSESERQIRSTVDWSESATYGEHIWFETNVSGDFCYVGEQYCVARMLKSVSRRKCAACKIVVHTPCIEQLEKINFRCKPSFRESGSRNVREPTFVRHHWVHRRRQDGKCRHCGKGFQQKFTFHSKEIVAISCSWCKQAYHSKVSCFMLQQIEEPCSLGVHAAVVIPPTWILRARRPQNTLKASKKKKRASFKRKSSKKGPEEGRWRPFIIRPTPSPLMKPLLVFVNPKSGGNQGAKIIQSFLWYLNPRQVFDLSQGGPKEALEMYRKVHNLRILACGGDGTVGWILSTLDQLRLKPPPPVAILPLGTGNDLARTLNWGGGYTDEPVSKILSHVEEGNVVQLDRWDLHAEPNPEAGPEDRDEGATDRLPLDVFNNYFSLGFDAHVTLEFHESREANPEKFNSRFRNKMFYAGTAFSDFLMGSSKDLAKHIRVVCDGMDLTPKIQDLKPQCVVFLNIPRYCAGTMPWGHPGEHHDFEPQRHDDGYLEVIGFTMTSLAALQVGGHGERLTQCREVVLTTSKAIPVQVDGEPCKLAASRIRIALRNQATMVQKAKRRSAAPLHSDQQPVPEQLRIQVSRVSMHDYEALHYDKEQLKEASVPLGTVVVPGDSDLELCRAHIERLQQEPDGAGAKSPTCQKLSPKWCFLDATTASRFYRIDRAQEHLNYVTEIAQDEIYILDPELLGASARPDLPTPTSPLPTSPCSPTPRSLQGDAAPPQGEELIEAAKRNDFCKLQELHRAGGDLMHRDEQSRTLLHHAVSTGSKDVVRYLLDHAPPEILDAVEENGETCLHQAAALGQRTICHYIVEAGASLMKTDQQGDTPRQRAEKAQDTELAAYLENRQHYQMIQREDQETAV

On to `CC(C)(C)c1nnc(-c2ccc3c(c2)N(Cc2ccc(-c4ncc(C(F)(F)F)o4)cc2)C(=O)[C@@H](N)CS3(=O)=O)o1` [Example 93, (3R)-3-amino-7-(5-tert-butyl-1,3,4-oxadiazol-2-yl)-1,1-dioxo-5-[[4-[5-(trifluoromethyl)oxazol-2-yl]phenyl]methyl]-2,3-dihydro-1λ^6,5-benzothiazepin-4-one], for which the pIC50 in assay [1] was 6.05; in assay [2], 6.31.
The like results for `CCOC(F)(c1nnc(-c2ccc3c(c2)N(Cc2ccc(-c4noc(C(F)(F)F)n4)cc2)C(=O)[C@@H](N)CS3(=O)=O)o1)C(F)(F)F` (stereo partly drawn) [Example 64, (3R)-3-amino-7-[5-(1-ethoxy-1,2,2,2-tetrafluoro-ethyl)-1,3,4-oxadiazol-2-yl]-1,1-dioxo-5-[[4-[5-(trifluoromethyl)-1,2,4-oxadiazol-3-yl]phenyl]methyl]-2,3-dihydro-1λ^6,5-benzothiazepin-4-one] were, in that order, 5.71 and 5.55.
The like results for `COc1ccc(-c2ccc(CN3C(=O)[C@@H](N)CS(=O)(=O)c4ccc(-c5nnc(C6(N)CCCCC6)o5)cc43)cc2)cc1` [Example 43, (3R)-3-amino-7-[5-(1-aminocyclohexyl)-1,3,4-oxadiazol-2-yl]-5-[[4-(4-methoxyphenyl)phenyl]methyl]-1,1-dioxo-2,3-dihydro-1λ^6,5-benzothiazepin-4-one] were, in that order, 4.77 and 5.96.
The corresponding values for `CC(C)(C#N)c1nnc(-c2ccc3c(c2)N(Cc2ccc(-c4ccc(C(F)(F)F)nc4)cc2)C(=O)[C@@H](N)CS3(=O)=O)o1` [Example 113, 2-[5-[(3R)-3-amino-1,1,4-trioxo-5-[[4-[6-(trifluoromethyl)-3-pyridyl]phenyl]methyl]-2,3-dihydro-1λ^6,5-benzothiazepin-7-yl]-1,3,4-oxadiazol-2-yl]-2-methyl-propanenitrile] are under 4.20 and 5.95.
Consider `N[C@H]1CS(=O)(=O)c2cc(F)c(-c3nnc(N4CCOC5(CC5)C4)o3)cc2N(Cc2ccc(-c3noc(C(F)(F)F)n3)cc2)C1=O` [Example 4, (3R)-3-amino-8-fluoro-7-[5-(4-oxa-7-azaspiro[2.5]octan-7-yl)-1,3,4-oxadiazol-2-yl]-1,1-dioxo-5-[[4-[5-(trifluoromethyl)-1,2,4-oxadiazol-3-yl]phenyl]methyl]-2,3-dihydro-1λ^6,5-benzothiazepin-4-one], for which the negative logarithm of the IC50 (pIC50) was 5.47 in assay [1] and 6.90 in assay [2].
The like results for `CC(C)(C#N)c1nnc(-c2ccc3c(c2)N(Cc2ccc(-c4noc(C(F)(F)F)n4)cc2)C(=O)[C@@H](N)CS3(=O)=O)o1` [Example 38, 2-[5-[(3R)-3-amino-1,1,4-trioxo-5-[[4-[5-(trifluoromethyl)-1,2,4-oxadiazol-3-yl]phenyl]methyl]-2,3-dihydro-1λ^6,5-benzothiazepin-7-yl]-1,3,4-oxadiazol-2-yl]-2-methyl-propanenitrile] were, in that order, 5.01 and 5.94.
As to `N[C@H]1CS(=O)(=O)c2ccc(-c3nnc(N4CCC(F)(F)CC4)o3)cc2N(Cc2ccc(-c3ccc(C(F)(F)F)cn3)cc2)C1=O` [Example 160], the pIC50 in assay [1] is 5.29; in assay [2], 6.04.
The corresponding values for `CC(C)(C#N)c1nnc(-c2ccc3c(c2)N(Cc2ccc(-c4ncc(C(F)(F)F)cn4)cc2)C(=O)[C@@H](N)CS3(=O)=O)o1` [Example 127, 2-[5-[(3R)-3-amino-1,1,4-trioxo-5-[[4-[5-(trifluoromethyl)pyrimidin-2-yl]phenyl]methyl]-2,3-dihydro-1λ^6,5-benzothiazepin-7-yl]-1,3,4-oxadiazol-2-yl]-2-methyl-propanenitrile] are under 4.22 and 5.61.
The like results for `CC(C)(C#N)c1nnc(-c2ccc3c(c2)N(Cc2ccc(-n4cc(C(F)(F)F)cn4)cc2)C(=O)[C@@H](N)CS3(=O)=O)o1` [Example 102, 2-[5-[(3R)-3-amino-1,1,4-trioxo-5-[[4-[4-(trifluoromethyl)pyrazol-1-yl]phenyl]methyl]-2,3-dihydro-1λ^6,5-benzothiazepin-7-yl]-1,3,4-oxadiazol-2-yl]-2-methyl-propanenitrile] were, in that order, 5.95 and 6.13.
The corresponding values for `CC(C)(C#N)c1nnc(-c2ccc3c(c2)N(Cc2ccc(-c4cc(OC(F)(F)F)ccn4)cc2)C(=O)[C@@H](N)CS3(=O)=O)o1` [Example 126, 2-[5-[(3R)-3-amino-1,1,4-trioxo-5-[[4-[4-(trifluoromethoxy)-2-pyridyl]phenyl]methyl]-2,3-dihydro-1λ^6,5-benzothiazepin-7-yl]-1,3,4-oxadiazol-2-yl]-2-methyl-propanenitrile] are 5.36 and 6.27.
For `CC(C)(C)c1nnc(-c2ccc3c(c2)N(Cc2ccc(-n4nnc(C(F)(F)F)n4)cc2)C(=O)[C@@H](N)CS3(=O)=O)o1` [Example 90, (3R)-3-amino-7-(5-tert-butyl-1,3,4-oxadiazol-2-yl)-1,1-dioxo-5-[[4-[5-(trifluoromethyl)tetrazol-2-yl]phenyl]methyl]-2,3-dihydro-1λ^6,5-benzothiazepin-4-one], the results for the pIC50 in assay [1] and in assay [2] were 4.62 and 5.67, respectively.
The like results for `N#CC1(c2nnc(-c3ccc4c(c3)N(Cc3ccc(-c5ccc(C(F)(F)F)cn5)cc3)C(=O)[C@@H](N)CS4(=O)=O)o2)CC1` [Example 62, 1-[5-[(3R)-3-amino-1,1,4-trioxo-5-[[4-[5-(trifluoromethyl)-2-pyridyl]phenyl]methyl]-2,3-dihydro-1λ^6,5-benzothiazepin-7-yl]-1,3,4-oxadiazol-2-yl]cyclopropane-carbonitrile] were, in that order, under 4.70 and 5.82.
For `COc1ccc(-c2ccc(CN3C(=O)[C@@H](N)CS(=O)(=O)c4ccc(-c5nnc(C(C)(C)C#N)o5)cc43)cc2)nc1` [Example 125], the pIC50 in assay [1] is 5.45; in assay [2], 6.03.
The corresponding values for `NC(c1nnc(-c2ccc3c(c2)N(Cc2ccc(-c4noc(C(F)(F)F)n4)cc2)C(=O)[C@@H](N)CS3(=O)=O)o1)C(F)(F)F` (stereo partly drawn) [Example 94] are under 4.22 and 5.04.
The corresponding values for `Cc1cc(C)n(-c2ccc(CN3C(=O)[C@@H](N)CS(=O)(=O)c4ccc(-c5nnc(C(C)(C)C)o5)cc43)cc2)n1` [Example 22, (3R)-3-amino-7-(5-tert-butyl-1,3,4-oxadiazol-2-yl)-5-[[4-(3,5-dimethylpyrazol-1-yl)phenyl]methyl]-1,1-dioxo-2,3-dihydro-1λ^6,5-benzothiazepin-4-one] are 5.73 and 5.96.
The corresponding values for `N[C@H]1CS(=O)(=O)c2cc(F)c(-c3noc(C4(N)COC4)n3)cc2N(Cc2ccc(-c3noc(C(F)(F)F)n3)cc2)C1=O` [Example 9, (3R)-3-amino-7-[5-(3-aminooxetan-3-yl)-1,2,4-oxadiazol-3-yl]-8-fluoro-1,1-dioxo-5-[[4-[5-(trifluoromethyl)-1,2,4-oxadiazol-3-yl]phenyl]methyl]-2,3-dihydro-1λ^6,5-benzothiazepin-4-one] are 5.48 and 6.33.
As to `N[C@H]1CS(=O)(=O)c2ccc(-c3nnc(C4(C(F)F)CNC4)o3)cc2N(Cc2ccc(-c3ccc(C(F)(F)F)cc3)cc2)C1=O` [Example 152], the values for the pIC50 in assay [1] and in assay [2] were under 4.22 and 4.91, respectively.
The corresponding values for `CC(C)(C#N)c1nnc(-c2ccc3c(c2)N(Cc2ccc(-c4ccc(C(F)(F)F)cc4)nc2)C(=O)[C@@H](N)CS3(=O)=O)o1` [Example 106] are 4.84 and 5.63.
